EC50 data for one compound are collected here from BindingDB's records for doi:10.1016/j.bmcl.2003.08.078 (University of Florida, 2003).

Each structure is given as a SMILES string.

In the test the target is Melanocortin receptor 4 (Mus musculus, UniProt P56450). Put plainly: ChEBML_104255. The source says:
Agonistic activity evaluated at melanocortin 4 receptor (MC4R) of mouse HEK293 cells

Chain of Melanocortin receptor 4 (P56450 whole entry): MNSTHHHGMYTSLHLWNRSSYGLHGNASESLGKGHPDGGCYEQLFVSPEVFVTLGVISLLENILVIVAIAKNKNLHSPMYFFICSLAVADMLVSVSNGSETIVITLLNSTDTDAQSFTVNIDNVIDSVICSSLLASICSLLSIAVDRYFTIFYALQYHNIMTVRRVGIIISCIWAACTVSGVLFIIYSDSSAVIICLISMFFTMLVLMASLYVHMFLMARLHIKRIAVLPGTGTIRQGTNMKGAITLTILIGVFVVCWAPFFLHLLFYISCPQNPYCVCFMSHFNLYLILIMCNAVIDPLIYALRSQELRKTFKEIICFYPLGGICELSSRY

For the compound `CC(=O)N[C@@H](Cc1cnc[nH]1)C(=O)N[C@H](Cc1ccccc1)C(=O)N[C@@H](CCCN=C(N)N)C(=O)N[C@@H](Cc1c[nH]c2ccccc12)C(N)=O` [(S)-2-{(R)-2-[(S)-2-Acetylamino-3-(1H-imidazol-4-yl)-propionylamino]-3-phenyl-propionylamino}-5-guanidino-pentanoic acid [(S)-1-carbamoyl-2-(1H-indol-3-yl)-ethyl]-amide], the EC50 (usually the concentration at which the effect is half-maximal) worked out at 17 nM.
